Data as given in ChEMBL document CHEMBL5442741, “ASAP - In vitro kinase profile” (2024).
Several values for one entry are separate records, joined by “and”; a condition that tells them apart may be missing. Equal entries are not always repeated.

Tests used:
[1] = molecular target: PI3-kinase p110-alpha/p85-alpha (Homo sapiens) (UniProt P27986+P42336); experiment: Enzymatic radiometric [Km ATP] KinaseProfiler LeadHunter assay, kinase: PI3 Kinase (p110-alpha/p85-alpha), catalogue number: 14-602KP The assay has been performed by Eurofins Discovery.; format: protein-complex assay; details: ATP concentration 200.0 uM, Test compound concentration 10.0 uM
[2] = molecular target: cAMP-dependent protein kinase catalytic subunit alpha (Homo sapiens) (UniProt P17612); experiment: Enzymatic radiometric [Km ATP] KinaseProfiler LeadHunter assay, kinase: PKA, catalogue number: 14-440KP The assay has been performed by Eurofins Discovery.; details: ATP concentration 10.0 uM, Test compound concentration 10.0 uM
[3] = molecular target: T1, MAP kinase-activated protein kinase 5 (Homo sapiens) (UniProt Q8IW41); experiment: Enzymatic radiometric [Km ATP] KinaseProfiler LeadHunter assay, kinase: PRAK, catalogue number: 14-334KP The assay has been performed by Eurofins Discovery.; details: ATP concentration 15.0 uM, Test compound concentration 10.0 uM
T1 sequence (whole entry): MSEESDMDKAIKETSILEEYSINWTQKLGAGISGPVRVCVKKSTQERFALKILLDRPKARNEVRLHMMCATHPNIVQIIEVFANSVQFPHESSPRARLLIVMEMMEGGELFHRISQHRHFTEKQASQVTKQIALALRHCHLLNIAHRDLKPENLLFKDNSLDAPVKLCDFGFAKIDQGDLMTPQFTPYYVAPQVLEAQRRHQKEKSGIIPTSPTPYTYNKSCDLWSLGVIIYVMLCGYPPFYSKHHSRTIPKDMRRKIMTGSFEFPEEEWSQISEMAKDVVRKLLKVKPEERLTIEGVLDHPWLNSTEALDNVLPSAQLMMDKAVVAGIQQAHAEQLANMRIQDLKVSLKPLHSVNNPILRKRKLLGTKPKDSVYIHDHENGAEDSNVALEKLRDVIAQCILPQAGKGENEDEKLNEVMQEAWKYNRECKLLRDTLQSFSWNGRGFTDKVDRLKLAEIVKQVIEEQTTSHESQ

[4] = molecular target: T2, Eukaryotic elongation factor 2 kinase (Homo sapiens) (UniProt O00418); experiment: Enzymatic radiometric [Km ATP] KinaseProfiler LeadHunter assay, kinase: eEF-2K, catalogue number: 14-654KP The assay has been performed by Eurofins Discovery.; details: ATP concentration 15.0 uM, Test compound concentration 10.0 uM
T2 sequence (whole entry): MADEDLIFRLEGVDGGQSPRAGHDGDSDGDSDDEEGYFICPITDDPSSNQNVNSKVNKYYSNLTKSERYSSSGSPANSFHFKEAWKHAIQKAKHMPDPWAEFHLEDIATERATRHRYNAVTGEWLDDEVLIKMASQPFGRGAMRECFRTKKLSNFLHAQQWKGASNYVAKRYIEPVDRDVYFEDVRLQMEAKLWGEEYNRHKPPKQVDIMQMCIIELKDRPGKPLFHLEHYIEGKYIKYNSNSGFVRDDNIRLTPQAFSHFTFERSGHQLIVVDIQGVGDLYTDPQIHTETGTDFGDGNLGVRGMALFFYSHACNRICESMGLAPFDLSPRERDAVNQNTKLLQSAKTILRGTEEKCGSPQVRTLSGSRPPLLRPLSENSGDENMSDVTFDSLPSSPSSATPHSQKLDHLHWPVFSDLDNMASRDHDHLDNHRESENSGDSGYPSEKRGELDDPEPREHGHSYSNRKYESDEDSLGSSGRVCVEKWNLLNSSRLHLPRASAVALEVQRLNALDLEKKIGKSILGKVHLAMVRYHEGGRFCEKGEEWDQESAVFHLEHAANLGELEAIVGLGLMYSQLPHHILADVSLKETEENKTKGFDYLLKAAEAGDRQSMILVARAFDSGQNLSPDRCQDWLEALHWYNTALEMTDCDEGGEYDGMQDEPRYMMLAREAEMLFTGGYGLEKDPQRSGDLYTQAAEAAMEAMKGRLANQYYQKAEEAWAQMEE

[5] = molecular target: Cyclin-dependent kinase 2/cyclin A (Homo sapiens) (UniProt P24941+P20248+P78396); experiment: Enzymatic radiometric [Km ATP] KinaseProfiler LeadHunter assay, kinase: CDK2/cyclinA, catalogue number: 14-448KP The assay has been performed by Eurofins Discovery.; format: protein-complex assay; details: ATP concentration 45.0 uM, Test compound concentration 10.0 uM
[6] = molecular target: T3, Mitogen-activated protein kinase kinase kinase 7 (Homo sapiens) (UniProt O43318); experiment: Enzymatic radiometric [Km ATP] KinaseProfiler LeadHunter assay, kinase: TAK1, catalogue number: 14-600KP The assay has been performed by Eurofins Discovery.; details: ATP concentration 45.0 uM, Test compound concentration 10.0 uM
T3 sequence (whole entry): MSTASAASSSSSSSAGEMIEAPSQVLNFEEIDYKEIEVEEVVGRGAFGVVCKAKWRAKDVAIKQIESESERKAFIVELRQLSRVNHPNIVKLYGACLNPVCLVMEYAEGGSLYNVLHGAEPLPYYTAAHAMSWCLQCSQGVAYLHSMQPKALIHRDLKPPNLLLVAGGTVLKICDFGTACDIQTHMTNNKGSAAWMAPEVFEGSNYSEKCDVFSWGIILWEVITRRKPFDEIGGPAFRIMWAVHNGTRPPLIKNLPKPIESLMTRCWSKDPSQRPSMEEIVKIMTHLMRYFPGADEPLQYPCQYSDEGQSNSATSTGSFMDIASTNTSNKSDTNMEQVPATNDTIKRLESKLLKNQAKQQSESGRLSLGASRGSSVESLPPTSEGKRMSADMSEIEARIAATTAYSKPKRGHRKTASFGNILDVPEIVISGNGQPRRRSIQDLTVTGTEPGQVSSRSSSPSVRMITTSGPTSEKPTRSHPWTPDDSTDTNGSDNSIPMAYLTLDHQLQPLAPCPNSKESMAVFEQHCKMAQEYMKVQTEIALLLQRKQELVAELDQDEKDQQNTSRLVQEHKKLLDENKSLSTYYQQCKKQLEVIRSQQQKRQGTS

[7] = molecular target: Tyrosine-protein kinase ABL1 (Homo sapiens) (UniProt P00519); experiment: Enzymatic radiometric [Km ATP] KinaseProfiler LeadHunter assay, kinase: Abl, catalogue number: 14-529KP The assay has been performed by Eurofins Discovery.; details: ATP concentration 45.0 uM, Test compound concentration 10.0 uM
[8] = molecular target: RAF proto-oncogene serine/threonine-protein kinase (Homo sapiens) (UniProt P04049); experiment: Enzymatic radiometric [Km ATP] KinaseProfiler LeadHunter assay, kinase: c-RAF, catalogue number: 14-352KP The assay has been performed by Eurofins Discovery.; details: ATP concentration 120.0 uM, Test compound concentration 10.0 uM
[9] = molecular target: 5'-AMP-activated protein kinase catalytic subunit alpha-1 (Homo sapiens) (UniProt Q13131); experiment: Enzymatic radiometric [Km ATP] KinaseProfiler LeadHunter assay, kinase: AMPK-alpha1, catalogue number: 14-840KP The assay has been performed by Eurofins Discovery.; details: ATP concentration 45.0 uM, Test compound concentration 10.0 uM
[10] = molecular target: Epidermal growth factor receptor (Homo sapiens) (UniProt P00533); experiment: Enzymatic radiometric [Km ATP] KinaseProfiler LeadHunter assay, kinase: EGFR, catalogue number: 14-531KP The assay has been performed by Eurofins Discovery.; details: ATP concentration 10.0 uM, Test compound concentration 10.0 uM
Chain of Epidermal growth factor receptor (Homo sapiens) (P00533 whole entry): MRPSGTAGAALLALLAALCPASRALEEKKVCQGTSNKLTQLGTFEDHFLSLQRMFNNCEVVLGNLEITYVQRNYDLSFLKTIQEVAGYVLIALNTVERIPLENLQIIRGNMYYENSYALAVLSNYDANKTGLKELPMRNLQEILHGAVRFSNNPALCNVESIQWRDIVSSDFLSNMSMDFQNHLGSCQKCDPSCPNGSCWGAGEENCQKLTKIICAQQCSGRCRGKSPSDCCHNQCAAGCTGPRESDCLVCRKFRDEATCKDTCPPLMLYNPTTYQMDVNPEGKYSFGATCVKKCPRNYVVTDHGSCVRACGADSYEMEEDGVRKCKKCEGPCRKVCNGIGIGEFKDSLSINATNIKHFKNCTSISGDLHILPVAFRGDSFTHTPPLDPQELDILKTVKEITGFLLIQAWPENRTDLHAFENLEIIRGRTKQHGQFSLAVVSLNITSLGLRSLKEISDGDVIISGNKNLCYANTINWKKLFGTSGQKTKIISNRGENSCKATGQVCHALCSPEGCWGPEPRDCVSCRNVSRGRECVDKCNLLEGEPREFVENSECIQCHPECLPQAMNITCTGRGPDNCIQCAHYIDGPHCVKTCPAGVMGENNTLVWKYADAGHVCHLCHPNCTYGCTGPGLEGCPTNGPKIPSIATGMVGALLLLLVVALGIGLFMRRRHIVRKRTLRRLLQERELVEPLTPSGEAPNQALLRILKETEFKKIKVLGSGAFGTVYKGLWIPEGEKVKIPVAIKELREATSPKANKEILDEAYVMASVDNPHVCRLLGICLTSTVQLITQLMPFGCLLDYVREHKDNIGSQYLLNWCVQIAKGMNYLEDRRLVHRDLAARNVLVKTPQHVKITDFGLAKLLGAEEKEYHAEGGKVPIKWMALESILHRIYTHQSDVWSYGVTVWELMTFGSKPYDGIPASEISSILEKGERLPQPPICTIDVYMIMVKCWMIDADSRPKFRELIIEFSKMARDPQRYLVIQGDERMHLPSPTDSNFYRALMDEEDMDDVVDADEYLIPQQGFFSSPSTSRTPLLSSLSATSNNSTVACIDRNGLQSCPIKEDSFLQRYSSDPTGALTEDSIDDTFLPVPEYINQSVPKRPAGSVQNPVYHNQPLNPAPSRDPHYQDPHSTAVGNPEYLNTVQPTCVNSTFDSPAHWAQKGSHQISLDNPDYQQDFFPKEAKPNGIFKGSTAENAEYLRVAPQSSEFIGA

Chain of 5'-AMP-activated protein kinase catalytic subunit alpha-1 (Homo sapiens) (Q13131 whole entry, looked up): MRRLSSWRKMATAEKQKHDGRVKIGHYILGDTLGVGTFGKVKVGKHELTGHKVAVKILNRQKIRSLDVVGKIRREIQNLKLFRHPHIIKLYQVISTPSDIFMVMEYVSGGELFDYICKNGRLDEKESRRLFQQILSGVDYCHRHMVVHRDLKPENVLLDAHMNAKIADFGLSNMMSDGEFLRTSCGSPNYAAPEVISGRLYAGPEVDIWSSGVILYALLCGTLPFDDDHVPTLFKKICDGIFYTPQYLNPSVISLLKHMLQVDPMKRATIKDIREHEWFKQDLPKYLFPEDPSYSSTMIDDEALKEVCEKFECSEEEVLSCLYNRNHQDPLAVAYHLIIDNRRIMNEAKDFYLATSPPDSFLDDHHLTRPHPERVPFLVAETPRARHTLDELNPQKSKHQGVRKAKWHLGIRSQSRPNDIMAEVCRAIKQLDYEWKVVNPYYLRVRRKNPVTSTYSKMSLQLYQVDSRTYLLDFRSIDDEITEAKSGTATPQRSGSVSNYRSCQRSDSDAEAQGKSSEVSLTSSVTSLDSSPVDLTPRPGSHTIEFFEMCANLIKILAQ
Chain of Tyrosine-protein kinase ABL1 (Homo sapiens) (P00519 whole entry): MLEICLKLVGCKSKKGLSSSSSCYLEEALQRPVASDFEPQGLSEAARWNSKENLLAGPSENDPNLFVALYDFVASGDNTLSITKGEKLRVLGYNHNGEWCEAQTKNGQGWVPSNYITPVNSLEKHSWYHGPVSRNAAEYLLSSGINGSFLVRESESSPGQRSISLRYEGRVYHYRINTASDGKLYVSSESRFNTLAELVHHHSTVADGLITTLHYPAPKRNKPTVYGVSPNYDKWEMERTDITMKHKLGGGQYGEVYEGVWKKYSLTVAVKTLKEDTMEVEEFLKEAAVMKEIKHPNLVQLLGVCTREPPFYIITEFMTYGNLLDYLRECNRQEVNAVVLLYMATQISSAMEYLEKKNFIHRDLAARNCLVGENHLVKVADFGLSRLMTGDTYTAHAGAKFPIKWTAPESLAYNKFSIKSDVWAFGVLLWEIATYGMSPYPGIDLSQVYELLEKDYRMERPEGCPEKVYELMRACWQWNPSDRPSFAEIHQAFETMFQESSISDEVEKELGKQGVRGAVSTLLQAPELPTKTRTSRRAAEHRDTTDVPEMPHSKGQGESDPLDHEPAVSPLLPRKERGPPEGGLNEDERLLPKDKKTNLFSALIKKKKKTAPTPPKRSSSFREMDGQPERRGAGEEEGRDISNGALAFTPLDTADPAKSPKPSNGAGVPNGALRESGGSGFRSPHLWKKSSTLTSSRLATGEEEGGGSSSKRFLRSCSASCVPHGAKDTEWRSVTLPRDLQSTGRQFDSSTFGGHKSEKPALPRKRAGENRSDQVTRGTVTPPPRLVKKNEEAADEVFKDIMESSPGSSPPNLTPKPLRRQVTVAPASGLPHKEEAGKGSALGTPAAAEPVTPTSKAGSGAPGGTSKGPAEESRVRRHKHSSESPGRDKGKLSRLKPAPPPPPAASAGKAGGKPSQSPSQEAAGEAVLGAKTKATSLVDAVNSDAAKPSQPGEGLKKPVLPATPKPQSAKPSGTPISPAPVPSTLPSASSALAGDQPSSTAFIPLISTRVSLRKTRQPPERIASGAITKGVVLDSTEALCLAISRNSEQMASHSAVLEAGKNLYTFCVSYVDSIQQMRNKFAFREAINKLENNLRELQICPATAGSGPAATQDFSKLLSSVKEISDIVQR
Chain of RAF proto-oncogene serine/threonine-protein kinase (Homo sapiens) (P04049 whole entry): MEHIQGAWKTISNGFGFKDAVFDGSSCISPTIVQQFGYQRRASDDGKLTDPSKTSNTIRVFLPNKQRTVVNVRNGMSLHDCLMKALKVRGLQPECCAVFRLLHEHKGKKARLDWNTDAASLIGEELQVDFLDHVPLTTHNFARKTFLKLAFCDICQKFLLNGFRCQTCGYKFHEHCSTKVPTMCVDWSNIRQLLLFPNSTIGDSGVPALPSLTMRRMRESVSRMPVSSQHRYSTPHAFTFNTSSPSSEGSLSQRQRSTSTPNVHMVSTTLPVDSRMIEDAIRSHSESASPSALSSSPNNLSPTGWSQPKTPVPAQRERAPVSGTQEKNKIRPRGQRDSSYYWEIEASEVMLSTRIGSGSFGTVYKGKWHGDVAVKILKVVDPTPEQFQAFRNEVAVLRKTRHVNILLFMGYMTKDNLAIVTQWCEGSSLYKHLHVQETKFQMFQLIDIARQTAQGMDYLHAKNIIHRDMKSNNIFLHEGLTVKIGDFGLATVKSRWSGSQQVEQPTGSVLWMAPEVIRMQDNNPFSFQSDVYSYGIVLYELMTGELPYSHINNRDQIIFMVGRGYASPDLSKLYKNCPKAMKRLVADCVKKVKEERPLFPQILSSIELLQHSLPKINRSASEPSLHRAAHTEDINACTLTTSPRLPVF

SMILES	Activity [1]	Activity [2]	Activity [3]	Activity [4]	Activity [5]	Activity [6]	Activity [7]	Activity [8]	Activity [9]	Activity [10]
CNC(=O)Cn1cc(-c2cc3c(N[C@@H](c4ccc5c(c4)S(=O)(=O)CCC5)C(C)C)ncnc3[nH]2)cn1	102%	99%	89%	94%	95%	99%	72%	102%	104%	98%
CC(C)[C@@H](Nc1ncnc2[nH]c(C(=O)N[C@@H]3CCN(C)C3)cc12)c1ccc2c(c1)S(=O)(=O)CCC2	104%	89%	111%	89%	117%	100%	100%	105%	107%	102%
CC(C)[C@@H](Nc1ncnc2[nH]ccc12)c1ccc2c(c1)S(=O)(=O)CCC2	104%	98%	107%	92%	96%	83%	93%	97%	94%	102%
COc1ccc([C@@H](Cc2nnn[nH]2)NC(=O)c2ncnc3[nH]ccc23)cc1	101%	105%	95%	96%	97%	88%	98%	90%	101%	96%
CC(C)[C@H](Nc1ncnc2[nH]ccc12)c1ccc2c(c1)S(=O)(=O)CCC2	94%	89%	102%	93%	102%	90%	105%	107%	104%	95%
CC(C)[C@@H](Nc1ncnc2[nH]c(-c3cnn(C)c3C#N)cc12)c1ccc2c(n1)OCCO2	49% and 55%	92% and 93%	95% and 89%	111% and 106%	95% and 104%	103% and 100%	52% and 57%	81% and 90%	116% and 99%	81% and 77%
CC(C)[C@H](Nc1ncnc2[nH]c(-c3cnn(C)c3C#N)cc12)c1ccc2c(n1)OCCO2	70%	82%	84%	108%	104%	94%	57%	97%	111%	90%
Cn1ncc(-c2cc3c(N[C@@H](c4ccc5c(n4)OCCO5)C(C)(C)C)ncnc3[nH]2)c1C#N	75%	95%	86%	124%	114%	95%	81%	87%	109%	99%
CNCc1cc(-c2cc3c(N[C@@H](c4ccc5c(c4)S(=O)(=O)CCC5)C(C)C)ncnc3[nH]2)co1	99%	96%	122%	82%	98%	90%	51%	100%	86%	97%
Cc1nn(C)cc1-c1cc2c(N[C@H](c3ccc4c(c3)S(=O)(=O)CCC4)C(C)C)ncnc2[nH]1	102%	95%	82%	98%	107%	100%	76%	93%	102%	87%
COc1ccc([C@H](Cc2nnn[nH]2)NC(=O)c2ncnc3[nH]ccc23)cc1	99%	88%	109%	96%	113%	99%	102%	103%	97%	97%
C[C@H](C(=O)O)[C@@H](NC(=O)c1ncnc2[nH]ccc12)c1ccc(Br)cc1	100%	87%	88%	85%	102%	95%	97%	108%	93%	93%
